In patent US20210038607A1, “OXADIAZOLYLTHIOPHENE DERIVATIVES USEFUL AS HISTONE DEACETYLASE INHIBITORS” (Karus Therapeutics Limited, priority 2018, published 2021):

Assays:
Human HDAC1 = target: T1, Human HDAC1 (Homo sapiens, UniProt Q13547); assay: HDAC1 biochemical assay, AMC-labeled peptide substrate; details: read-out: HDAC Isoform IC50 (nM) 1
T1 construct: full length with C-terminal His-tag and C-terminal FLAG-tag; His (C); FLAG (C); host or cells: baculovirus expression system
How it was run: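 Two-step fluorogenic read: HDAC1 deacetylates 50 μM acetyl-lysine AMC peptide RHKK(Ac)AMC for 1 h at 30° C (pH 8.0, 1% DMSO, with compound), then developer digests the product for fluorescence at Ex/Em 360/460. Enzyme is full-length human, His/FLAG-tagged, insect-cell expressed, at 0.3 ng/ul.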

Human HDAC10 = target: T2, Human HDAC10 (Homo sapiens, UniProt Q969S8); assay: HDAC10 biochemical assay, AMC-labeled peptide substrate; details: read-out: HDAC Isoform IC50 (nM) 10
T2 construct: Human HDAC10 (a.a. 1-481); GST (N); His (C); host or cells: baculovirus expression system
T2 sequence (Q969S8 1-481): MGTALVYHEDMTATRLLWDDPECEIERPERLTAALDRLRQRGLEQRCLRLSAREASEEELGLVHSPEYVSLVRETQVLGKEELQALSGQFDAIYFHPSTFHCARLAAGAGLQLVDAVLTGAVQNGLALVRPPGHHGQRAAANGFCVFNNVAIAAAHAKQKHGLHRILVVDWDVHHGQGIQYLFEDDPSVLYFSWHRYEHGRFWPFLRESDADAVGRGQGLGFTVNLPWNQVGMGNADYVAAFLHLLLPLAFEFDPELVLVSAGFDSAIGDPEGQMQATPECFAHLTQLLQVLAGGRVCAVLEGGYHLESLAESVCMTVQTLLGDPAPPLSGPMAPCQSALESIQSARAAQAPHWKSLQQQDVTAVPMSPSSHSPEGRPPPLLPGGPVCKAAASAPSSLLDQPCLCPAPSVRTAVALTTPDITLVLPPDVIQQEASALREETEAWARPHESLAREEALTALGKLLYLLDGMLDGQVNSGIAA
Method: (§1) Activity against all zinc-dependent HDACs 1 to 11 was assessed by using an acetylated AMC-labeled peptide substrate. The substrate RHKK(Ac)AMC was used for HDAC1, HDAC2, HDAC3, HDAC6 and HDAC10; the substrate used for HDAC8 was RHK(Ac)K(Ac)AMC. Activity against the class IIa HDACs (HDAC4, 5, 7, 9) and HDAC11 was determined using a class IIa-specific substrate, BOC-Lys(trifluoroacetyl)-AMC (“Trifluoroacetyl Lysine”; see Lahm et al, 2007, PNAS, 104, 17335-17340). All assays were based on the AMC-labeled substrate and developer combination.
(§2) The protocol involved a two-step reaction: first, the substrate with the acetylated lysine side chain is incubated with a sample containing HDAC activity, to produce the deacetylated products, which are then digested in the second step by the addition of developer to produce the fluorescent signal proportional to the amount of deacetylated substrates.
Human HDAC10 (a.a. 1-481), GenBank Accession No. NM_032019 with N-terminal GST tag and C-terminal His tag, MW=78 kDa, expressed in baculovirus expression system.
(§3) Assay Buffer: 50 mM Tris-HCl, pH8.0, 137 mM NaCl, 2.7 mM KCl, 1 mM MgC2. Before use, 1 mg/mL BSA and DMSO are added.
HDAC10: 12 ng/ul HDAC10 and 50 μM HDAC substrate are in the reaction buffer with 1% DMSO final. Incubate for 2 hours at 30° C.
(§4) Stage 1: Deacetylation of substrate by incubation of HDAC enzymes with compounds
(§5) Stage 2: Development by addition of Developer to digest the deacetylated substrate, and generate the fluorescent colour; Detection: 360/460 Ex/Em

Human HDAC7 = target: T3, Human HDAC7 (Homo sapiens, UniProt Q8WUI4); assay: HDAC7 biochemical assay, class IIa-specific substrate; details: read-out: HDAC Isoform IC50 (nM) 7
T3 construct: (a.a. 518-end) with N-terminal GST tag; GST (N); host or cells: baculovirus expression system
T3 sequence (Q8WUI4 518-952 limits assumed): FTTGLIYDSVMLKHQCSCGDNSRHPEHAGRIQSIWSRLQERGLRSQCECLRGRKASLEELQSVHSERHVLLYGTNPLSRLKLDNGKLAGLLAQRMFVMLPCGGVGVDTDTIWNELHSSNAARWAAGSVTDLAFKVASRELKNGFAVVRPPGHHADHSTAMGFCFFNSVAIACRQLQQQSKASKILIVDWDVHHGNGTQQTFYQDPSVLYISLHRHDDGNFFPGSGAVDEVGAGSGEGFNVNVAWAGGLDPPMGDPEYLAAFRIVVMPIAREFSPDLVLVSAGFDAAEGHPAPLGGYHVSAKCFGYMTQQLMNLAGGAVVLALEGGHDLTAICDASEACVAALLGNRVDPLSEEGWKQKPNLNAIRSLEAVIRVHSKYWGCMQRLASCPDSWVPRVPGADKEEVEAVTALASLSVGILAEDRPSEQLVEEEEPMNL
How it was run: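 Two-step fluorogenic readout: class IIa-selective trifluoroacetyl-lysine AMC substrate (50 μM) deacetylated by N-terminal GST-HDAC7 fragment (0.001 ng/ul), then digested by developer, Ex/Em 360/460. Reaction: 30 min, room temperature, Tris-HCl pH 8.0, NaCl/KCl/MgCl2, 1 mg/mL BSA, 1% DMSO.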

Human HDAC2 = target: T4, Human HDAC2 (Homo sapiens, UniProt Q92769); assay: HDAC2 biochemical assay, AMC-labeled peptide substrate; details: read-out: HDAC Isoform IC50 (nM) 2
T4 construct: full length with C-terminal GST-tag; GST (C); host or cells: baculovirus expression system
Method: as §1, §2
Human HDAC2 (GenBank Accession No. NM_001527), full length with C-terminal GST-tag, MW=82.9 kDa, expressed inbaculovirus expression system.
as §3
HDAC2: 0.07 ng/ul HDAC2 and 50 μM HDAC substrate are in the reaction buffer with 1% DMSO final. Incubate for 1 hour at 30° C.
as §4, §5

Human HDAC9 = target: T5, Human HDAC9 (Homo sapiens, UniProt Q9UKV0); assay: HDAC9 biochemical assay, class IIa-specific substrate; details: read-out: HDAC Isoform IC50 (nM) 9
T5 construct: amino acids 604-1066 with C-terminal His tag; His (C); host or cells: baculovirus expression system
How it was run: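 HDAC9 residues 604-1066 (C-terminal His tag, baculovirus-expressed) at 0.06 ng/ul with 50 μM class IIa substrate Boc-Lys(trifluoroacetyl)-AMC in Tris-HCl pH 8.0 buffer with BSA and 1% DMSO. 30 min at room temperature, then developer added; fluorescence read at 360/460 nm Ex/Em.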

T4 sequence (Q92769 whole entry, canonical isoform): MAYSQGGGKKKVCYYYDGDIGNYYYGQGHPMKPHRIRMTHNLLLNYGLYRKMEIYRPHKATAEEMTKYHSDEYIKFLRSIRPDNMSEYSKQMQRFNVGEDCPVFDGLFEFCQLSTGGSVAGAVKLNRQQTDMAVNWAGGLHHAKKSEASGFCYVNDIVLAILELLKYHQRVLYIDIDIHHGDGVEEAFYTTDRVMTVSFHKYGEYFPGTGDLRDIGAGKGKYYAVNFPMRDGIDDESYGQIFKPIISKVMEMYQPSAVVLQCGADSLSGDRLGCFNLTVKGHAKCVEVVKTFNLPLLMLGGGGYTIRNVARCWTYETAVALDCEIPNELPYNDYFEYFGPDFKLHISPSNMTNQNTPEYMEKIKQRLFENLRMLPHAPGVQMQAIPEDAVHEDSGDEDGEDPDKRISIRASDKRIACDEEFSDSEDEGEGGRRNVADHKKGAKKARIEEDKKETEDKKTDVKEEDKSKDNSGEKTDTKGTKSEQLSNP
T5 sequence (Q9UKV0 604-1066 isoform Q9UKV0-5): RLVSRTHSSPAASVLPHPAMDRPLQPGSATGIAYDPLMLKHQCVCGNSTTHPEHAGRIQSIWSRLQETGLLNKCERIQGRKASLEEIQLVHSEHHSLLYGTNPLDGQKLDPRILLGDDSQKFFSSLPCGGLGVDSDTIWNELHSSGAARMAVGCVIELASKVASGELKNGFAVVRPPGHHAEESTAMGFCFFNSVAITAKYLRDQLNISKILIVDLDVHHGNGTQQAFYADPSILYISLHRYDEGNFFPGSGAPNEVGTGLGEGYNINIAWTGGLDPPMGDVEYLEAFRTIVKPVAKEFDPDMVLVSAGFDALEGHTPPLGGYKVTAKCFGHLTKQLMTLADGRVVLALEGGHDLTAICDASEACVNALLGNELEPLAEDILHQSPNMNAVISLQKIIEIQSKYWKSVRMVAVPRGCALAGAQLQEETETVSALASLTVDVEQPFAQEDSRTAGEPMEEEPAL
T1 sequence (Q13547 whole entry, canonical isoform): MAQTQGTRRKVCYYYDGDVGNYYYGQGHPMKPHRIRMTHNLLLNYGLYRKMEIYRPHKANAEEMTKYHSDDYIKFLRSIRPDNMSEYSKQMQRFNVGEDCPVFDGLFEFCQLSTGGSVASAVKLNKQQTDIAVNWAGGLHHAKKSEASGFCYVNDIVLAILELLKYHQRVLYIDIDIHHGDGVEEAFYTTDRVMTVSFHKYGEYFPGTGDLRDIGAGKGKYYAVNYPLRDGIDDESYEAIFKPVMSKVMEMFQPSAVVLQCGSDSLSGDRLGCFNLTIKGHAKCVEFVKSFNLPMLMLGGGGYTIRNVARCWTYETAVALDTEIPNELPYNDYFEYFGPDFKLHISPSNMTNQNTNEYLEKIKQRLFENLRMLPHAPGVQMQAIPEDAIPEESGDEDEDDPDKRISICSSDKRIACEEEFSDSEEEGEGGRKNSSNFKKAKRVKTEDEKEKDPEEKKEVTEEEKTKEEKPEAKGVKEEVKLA

SMILES | IC50 (Human HDAC1) | IC50 (Human HDAC10) | IC50 (Human HDAC7) | IC50 (Human HDAC2) | IC50 (Human HDAC9)
O=C(c1cnnc(N(Cc2ccc(-c3noc(C(F)(F)F)n3)s2)c2cnccn2)c1)N1CC[S+]([O-])CC1 [Example FU, 4-{6-[(Pyrazin-2-yl)({5-[5-(trifluoromethyl)-1,2,4-oxadiazol-3-yl]thiophen-2-yl}methyl)amino]pyridazine-4-carbonyl}-1lambda4-thiomorpholin-1-one] | > 10000 nM | > 10000 nM | ≤ 10000 nM | > 10000 nM | ≤ 10000 nM
[O-][S+]1CCN(Cc2ccc(N(Cc3ccc(-c4noc(C(F)(F)F)n4)s3)c3cnccn3)nn2)CC1 [Example FO, 4-({6-[(Pyrazin-2-yl)({5-[5-(trifluoromethyl)-1,2,4-oxadiazol-3-yl]thiophen-2-yl}methyl)amino]pyridazin-3-yl}methyl)-1lambda4-thiomorpholin-1-one] | > 10000 nM | > 10000 nM | ≤ 1000 nM | > 10000 nM | ≤ 10000 nM
NC(=O)c1cnnc(N(Cc2ccc(-c3noc(C(F)(F)F)n3)s2)c2cnccn2)c1 [Example DX, 6-[(Pyrazin-2-yl)({5-[5-(trifluoromethyl)-1,2,4-oxadiazol-3-yl]thiophen-2-yl}methyl)amino]pyridazine-4-carboxamide] | > 10000 nM | > 10000 nM | ≤ 500 nM | > 10000 nM | ≤ 10000 nM
O=C(O)c1ccc(N(Cc2sc(-c3noc(C(F)(F)F)n3)cc2F)c2cnccn2)nn1 [Example EZ, 6-[({3-Fluoro-5-[5-(trifluoromethyl)-1,2,4-oxadiazol-3-yl]thiophen-2-yl}methyl)(pyrazin-2-yl)amino]pyridazine-3-carboxylic acid] | > 10000 nM | > 10000 nM | ≤ 10000 nM | > 10000 nM | ≤ 10000 nM
O=C(c1cnnc(N(Cc2ccc(-c3noc(C(F)(F)F)n3)s2)c2cnccn2)c1)N1CCC(F)(F)CC1 [Example FY, 5-(4,4-Difluoropiperidine-1-carbonyl)-N-(pyrazin-2-yl)-N-({5-[5-(trifluoromethyl)-1,2,4-oxadiazol-3-yl]thiophen-2-yl}methyl)pyridazin-3-amine] | > 10000 nM | > 10000 nM | ≤ 10000 nM | > 10000 nM | ≤ 10000 nM
O=C(c1ccc(N(Cc2ccc(-c3noc(C(F)(F)F)n3)s2)c2cnccn2)nn1)N1CCC2(COC2)C1 [Example FJ, 6-{2-Oxa-6-azaspiro[3.4]octane-6-carbonyl}-N-(pyrazin-2-yl)-N-({5-[5-(trifluoromethyl)-1,2,4-oxadiazol-3-yl]thiophen-2-yl}methyl)pyridazin-3-amine] | ≤ 10000 nM | > 10000 nM | ≤ 500 nM | > 10000 nM | ≤ 1000 nM
O=C(c1cnnc(N(Cc2ccc(-c3noc(C(F)(F)F)n3)s2)c2cnccn2)c1)N1CCC12COC2 [Example GF, 5-{6-Oxa-1-azaspiro[3.3]heptane-1-carbonyl}-N-(pyrazin-2-yl)-N-({5-[5-(trifluoromethyl)-1,2,4-oxadiazol-3-yl]thiophen-2-yl}methyl)pyridazin-3-amine] | > 10000 nM | > 10000 nM | ≤ 10000 nM | > 10000 nM | ≤ 10000 nM
O=C(O)c1cnnc(N(Cc2sc(-c3noc(C(F)(F)F)n3)cc2F)c2cnccn2)c1 [Example FA, 6-[({3-fluoro-5-[5-(trifluoromethyl)-1,2,4-oxadiazol-3-yl]thiophen-2-yl}methyl)(pyrazin-2-yl)amino]pyridazine-4-carboxylic acid] | > 10000 nM | > 10000 nM | ≤ 1000 nM | > 10000 nM | ≤ 10000 nM
O=C(c1cnnc(N(Cc2ccc(-c3noc(C(F)(F)F)n3)s2)c2cnccn2)c1)N1CCOCC1 [Example EB, 5-(Morpholine-4-carbonyl)-N-(pyrazin-2-yl)-N-({5-[5-(trifluoromethyl)-1,2,4-oxadiazol-3-yl]thiophen-2-yl}methyl)pyridazin-3-amine] | > 10000 nM | > 10000 nM | ≤ 1000 nM | > 10000 nM | ≤ 10000 nM

Further lines, results first:

IC50 (Human HDAC1) | IC50 (Human HDAC10) | IC50 (Human HDAC7) | IC50 (Human HDAC2) | IC50 (Human HDAC9) | SMILES
> 10000 nM | > 10000 nM | ≤ 10000 nM | > 10000 nM | ≤ 10000 nM | CC1(c2cnnc(N(Cc3ccc(-c4noc(C(F)(F)F)n4)s3)c3cnccn3)c2)COC1 [Example GT, 5-(3-Methyloxetan-3-yl)-N-(pyrazin-2-yl)-N-({5-[5-(trifluoromethyl)-1,2,4-oxadiazol-3-yl]thiophen-2-yl}methyl)pyridazin-3-amine]
> 10000 nM | > 10000 nM | ≤ 1000 nM | > 10000 nM | ≤ 10000 nM | O=C(c1cnnc(N(Cc2ccc(-c3noc(C(F)(F)F)n3)s2)c2cnccn2)c1)N1CC(C(F)(F)F)C1 [Example GJ, N-(Pyrazin-2-yl)-N-({5-[5-(trifluoromethyl)-1,2,4-oxadiazol-3-yl]thiophen-2-yl}methyl)-5-[3-(trifluoromethyl)azetidine-1-carbonyl]pyridazin-3-amine]
> 10000 nM | > 10000 nM | ≤ 10000 nM | > 10000 nM | ≤ 10000 nM | O=C(c1nccnc1N(Cc1ccc(-c2noc(C(F)(F)F)n2)s1)c1cnccn1)N1CCC1 [Example GP, 3-(Azetidine-1-carbonyl)-N-(pyrazin-2-yl)-N-({5-[5-(trifluoromethyl)-1,2,4-oxadiazol-3-yl]thiophen-2-yl}methyl)pyrazin-2-amine]
> 10000 nM | > 10000 nM | ≤ 1000 nM | > 10000 nM | ≤ 10000 nM | FC(F)(F)c1nc(-c2ccc(CN(c3cnccn3)c3cc(CN4CCCC4)ccn3)s2)no1 [Example GG, N-{4-[(Pyrrolidin-1-yl)methyl]pyridin-2-yl}-N-({5-[5-(trifluoromethyl)-1,2,4-oxadiazol-3-yl]thiophen-2-yl}methyl)pyrazin-2-amine]
